Here are results for three molecules from publication PMC2561905 (Biochemistry, 2008).

Assay [1] concerns LLhP. Conditions: read-out: Operator capture by LLhP and variants (× 10^-7 M hypoxanthine), lacO^disC; [co-repressor]mid; SD, n = 3.
In assay [2] the test system is Q55V. Conditions: read-out: Operator capture by LLhP and variants (× 10^-7 M hypoxanthine), lacO^1; [co-repressor]mid; SD, n = 3.
The test system of assay [3] is LLhP. Conditions: read-out: Operator capture by LLhP and variants (× 10^-7 M hypoxanthine), lacO^1; [co-repressor]mid; SD, n = 3.
The test system of assay [4] is Q55V. The settings on record: read-out: Operator capture by LLhP and variants (× 10^-7 M hypoxanthine), lacO^sym; [co-repressor]mid; SD, n = 3.
Assay [5] relates to I48S. The settings on record: read-out: Operator capture by LLhP and variants (× 10^-7 M hypoxanthine), lacO^sym; [co-repressor]mid; SD, n = 3.
For assay [6], the system named is I48S. Conditions: read-out: Operator capture by LLhP and variants (× 10^-7 M hypoxanthine), lacO^1; [co-repressor]mid; SD, n = 3.
In assay [7] the test system is Q55T. The settings on record: read-out: Operator capture by LLhP and variants (× 10^-7 M hypoxanthine), lacO^disC; [co-repressor]mid; SD, n = 3.
Assay [8] deals with I48S. The settings on record: read-out: Operator capture by LLhP and variants (× 10^-7 M hypoxanthine), lacO^disC; [co-repressor]mid; SD, n = 3.
For assay [9], the system named is S61C. The settings on record: read-out: Operator capture by LLhP and variants (× 10^-7 M hypoxanthine), lacO^1; [co-repressor]mid; SD, n = 3.
The test system of assay [10] is Q55V. Conditions: read-out: Operator capture by LLhP and variants (× 10^-7 M hypoxanthine), lacO^disC; [co-repressor]mid; SD, n = 3.
Assay [11] has as its system S61C. The settings on record: read-out: Operator capture by LLhP and variants (× 10^-7 M hypoxanthine), lacO^disC; [co-repressor]mid; SD, n = 3.
In assay [12] the test system is Q55T. Conditions: read-out: Operator capture by LLhP and variants (× 10^-7 M hypoxanthine), lacO^1; [co-repressor]mid; SD, n = 3.
Assay [13] relates to I48V. The settings on record: read-out: Operator capture by LLhP and variants (× 10^-7 M hypoxanthine), lacO^1; [co-repressor]mid; SD, n = 3.
The subject of assay [14] is LLhP. Conditions: read-out: Operator capture by LLhP and variants (× 10^-7 M hypoxanthine), lacO^sym; [co-repressor]mid; SD, n = 3.
The subject of assay [15] is I48V. The settings on record: read-out: Operator capture by LLhP and variants (× 10^-7 M hypoxanthine), lacO^disC; [co-repressor]mid; SD, n = 3.
The subject of assay [16] is S61M. Conditions: read-out: Operator capture by LLhP and variants (× 10^-7 M hypoxanthine), lacO^disC; [co-repressor]mid; SD, n = 3.
Assay [17] relates to S61M. Conditions: read-out: Operator capture by LLhP and variants (× 10^-7 M hypoxanthine), lacO^1; [co-repressor]mid; SD, n = 3.
The test system of assay [18] is Q55T. Conditions: read-out: Operator capture by LLhP and variants (× 10^-7 M hypoxanthine), lacO^sym; [co-repressor]mid; SD, n = 3.
Assay [19] deals with I48V. Conditions: read-out: Operator capture by LLhP and variants (× 10^-7 M hypoxanthine), lacO^sym; [co-repressor]mid; SD, n = 3.
For assay [20], the system named is lacO^1 operator DNA. As to the kind of experiment: Operator capture experiment with lacO^1. Format: binding, E. coli. The settings on record: curves super-imposable for three different operator sequences.
For assay [21], the system named is lacO^disC operator DNA. Kind of assay: Nitrocellulose filter binding, DNA-binding affinity for lacO^disC. The settings on record: LLhP+HX compared with LacI without inducer.
Assay [22] concerns lacO^sym operator DNA. The settings on record: LacI without inducer; cited from earlier work.

Like-named read-outs stand apart in the source and are kept apart here.

For the molecule `O=c1[nH]cnc2[nH]cnc12` [hypoxanthine, hypoxanthine (HX)], the EC50 in [1] amounted to 370 ± 80 nM; in assay [2] it was 1000 ± 130 nM; in assay [3], 410 ± 70 nM; in assay [4] it was 850 ± 60 nM; in assay [5], 670 ± 60 nM; in [6] it was 950 ± 70 nM. The EC50 was determined as 2100 ± 160 nM in [7]; 1600 ± 180 nM in assay [8]; 4700 ± 410 nM in assay [9]; 2200 ± 80 nM in assay [10]; 8000 ± 270 nM in assay [11]; 1000 ± 80 nM in assay [12]. For the same molecule, the EC50 in assay [13] was determined as 880 ± 60 nM; in [14] it was 550 ± 230 nM; in [15], 3300 ± 160 nM; in assay [16], 11700 ± 1200 nM; in assay [17], 5900 ± 340 nM; in [18], 430 ± 40 nM. Besides, the EC50 in assay [19] came to 570 ± 50 nM.

B1: LLhP: chimeric repressor: LacI DNA-binding domain, LacI linker and PurR regulatory domain; homodimer (protein)
chain: MKPVTLYDVAEYAGVSYQTVSRVVNQASHVSAKTREKVEAAMAELNYIPNRVAQQLAGKQSLLIGVATSSLALHAPSQIVAAIKSRADQLGASVVVSMVERSGVEACKAAVHNLLAQRVSGLIINYPLDDQDAIAVEAACTNVPALFLDVSDQTPINSIIFSHEDGTRLGVEHLVALGHQQIALLAGPLSSVSARLRLAGWHKYLTRNQIQPIAEREGDWSAMSGFQQTMQMLNEGIVPTAMLVANDQMALGAMRAITESGLRVGADISVVGYDDTEDSSCYIPPLTTIKQDFRLLGQTSVDRLLQLSQGQAVKGNQLLPVSLVKRKTTLAPNATIKDVAKRANVSTTTVSHVINKTRFVAEETRNAVWAAIKELHYSPSAVARSLKVNHTKSIGLLATSSEAAYFAEIIEAVEKNCFQKGYTLILGNAWNNLEKQRAYLSMMAQKRVDGLLVMCSEYPEPLLAMLEEYRHIPMVVMDWGEAKADFTDAVIDNAFEGGYMAGRYLIERGHREIGVIPGPLERNTGAGRLAGFMKAMEEAMIKVPESWIVQGDFEPESGYRAMQQILSQPHRPTAVFCGGDIMAMGALCAADEMGLRVPQDVSLIGYDNVRNARYFTPALTTIHQPKDSLGETAFNMLLDRIVNKREEPQSIEVHPRLIERRSVADGPFRDYRR
Consider B1, for which the Operator capture mid-point result in [20] is recorded as “around 4.4 × 10 ^−7 M hypoxanthine”. Further, in assay [21], the “Tighter binding of lacO^disC than LacI” value is roughly 30 fold.

B2: LacI: lactose repressor protein, naturally-occurring LacI/GalR homologue used for comparison (protein, UniProt P03023 1-360, looked up)
Lactose operon repressor: MKPVTLYDVAEYAGVSYQTVSRVVNQASHVSAKTREKVEAAMAELNYIPNRVAQQLAGKQSLLIGVATSSLALHAPSQIVAAIKSRADQLGASVVVSMVERSGVEACKAAVHNLLAQRVSGLIINYPLDDQDAIAVEAACTNVPALFLDVSDQTPINSIIFSHEDGTRLGVEHLVALGHQQIALLAGPLSSVSARLRLAGWHKYLTRNQIQPIAEREGDWSAMSGFQQTMQMLNEGIVPTAMLVANDQMALGAMRAITESGLRVGADISVVGYDDTEDSSCYIPPLTTIKQDFRLLGQTSVDRLLQLSQGQAVKGNQLLPVSLVKRKTTLAPNTQTASPRALADSLMQLARQVSRLESGQ
For B2, the “Tighter binding of lacO^sym than lacO^1” value in assay [22] is roughly 10 fold.
